Tests used:
[1] = system: human peripheral blood mononuclear cells; experiment: inhibition of E. coli LPS-induced α TNF production in human peripheral blood mononuclear cells; format: cell-based; conditions: product 10 μg/ml; for 50% inhibition LPS: LPS concentration at which α TNF production is 50% of control; for max. Inhibition LPS: LPS concentration corresponding to maximum inhibition
Experimental: Mononuclear cells of peripheral blood are recovered from buffy coats of 6 healthy donors. Such buffy coat cells are resuspended and mononuclear cells are isolated by centrifugation on a Ficoll-Paque gradient (Amersham Pharmacia). Purified mononuclear cells are resuspended into RPMI-1640 medium supplemented with 10% FCS, antibiotics, mercaptoethanol and L-glutamine. Cell concentration is adjusted to 2×10^6 viable cells/ml.
Product mediated Inhibition is determined by preincubating those products with mononuclear cells, and adding, 1 hour later, serially diluted solutions of LPS capable of inducing α TFN production. […] E. coli LPS is serially diluted (10-fold dilution) to be in the range of 1 to 0.00001 μg/ml
50 μl of 10 μg/ml dilute product solutions in RPMI 1640 medium are dispensed into a microtiter plate. Each assay (10 μg/ml product concentration+dilute E. coli LPS) is run in triplicates and each microtiter plate includes a negative control comprised of plain medium. LPS-induced α TNF production (without inhibitor) is determined by adding E. coli LPS dilutions to RPMI medium.
100 μl of the cell suspension are added to each well containing dilutions of either product or control. Cells are incubated with the products for 1 hour in an incubator at 37° C., under 5% CO2 and a moisture saturated atmosphere.
At the end of the pre-incubation period, 50 μl of serially diluted solutions of E. coli LPS are added. Incubation of mononuclear cells with the product and LPS is extended for 18 hours. At the end of the cell activation period, the microtiter plates are centrifuged, and the supernatants are pooled and frozen at −80° C. as aliquots until time of ELISA assay.
Concentration of αTNF secreted by mononuclear cells is determined by chemiluminescent ELISA (QuantiGlo #QTAOO R&D kit). 4-fold dilutions of supernatant fluid are dispensed into each well of the microtiter plate to which anti-human αTNF antibodies are bound. The microtiter plate is incubated for 4 hours at room temperature. After washing, peroxidase-conjugated anti-human αTNF antibody is added. Following a 2 hour incubation period and a thorough washing, a chemiluminescent substrate is added and chemilunescence is read after 20 minutes. αTNF content in the supernatant fluid is determined with respect to a standard curve covering the 7000 to 0.7 pg/ml range.
Inhibition is characterized by the E. coli LPS concentration which elicits 50% production of α TNF during co-incubation in comparison to a control including only RPMI. This concentration increases as product inhibition activity becomes stronger. Knowing inhibition values of α TNF production, this concentration is given by calculating 100-(αTNF production induced by product and LPS)/(αTNF production induced by LPS alone)*100. From these inhibition data, concentration is determined by linear regression along the line segment which joins 2 LPS dilutions giving approx. 50% inhibition.
Product ability to inhibit α TNF production in mononuclear cells in response to LPS is further characterized by maximum inhibition. […] Results are calculated from a representative experience using all products.

[2] = cytotoxicity on virus-free MT-4 cells (MTT); format: cell-based; conditions: human, MT-4 cells (virus-free)
Experimental: Cytotoxicity of a given product is assessed in the same manner in the lower portion of the plate where the test is conducted by incubating serially diluted products over virus-free cells, to thereby determine the toxic effect of products on cells. The result is given as CC50, i.e. the concentration at which 50% of cells are dead due to product toxicity. Selectivity (selectivity index, SI) of a given product is defined as a CC50/IC50 ratio. This parameter is of great importance since the selectivity index of a fairly efficient product is high.

[3] = system: murine predendritic cells (CD-DM); experiment: maturation of murine predendritic cells into dendritic cells (flow cytometry of surface markers); format: cell-based, C57BI/6 mice; conditions: for CD40 MFI: 48 hour
Experimental: The marrow was aspirated from the femur and tibia bones of (C57BI/6, 6 to 8 week-old) mice. The marrow suspension was screened through a 70 μm cell sieve in order to obtain a single cell suspension. Marrow cells were resuspended into Isocove's modified Dulbecco medium (IMDM) supplemented with 10% of heat inactivated foetal calf serum (iFCS) and antibiotics. Cells were incubated overnight at 37° C., under CO2 and a moisture saturated atmosphere, inside 6-well microtiter plates. Next day (day 0), non adherent cells were collected and washed. Viable cells were counted by trypan blue dye exclusion test. Cell concentration was adjusted to 2×10^5 cells/ml in IMDM containing […] and 20 ng/ml of murine recombinant IL-4 (rmIL-4) and plates were further incubated. On the 3rd day, there were added freshly prepared mGM-CSF and rmIL-4 at a concentration of 10 ng/ml. On the 6th day, non adherent cells were collected, washed and counted by trypan blue dye exclusion. Cell concentration was adjusted to 2×10^5 cells/ml in IMDM containing 10 ng/ml of rmGM-CSF and rmIL-4, and plates were further incubated. On the 8th day, non adherent cells made up of both mature and immature dendritic cells (CD-DM) were collected and used in product co-incubation experiments.
After a 48 hour incubation period, cells were collected and stored for flow cytometry analysis Flow cytometry analysis CD-DM were washed with PBS containing 2% iFCS and 0.01% sodium azide (FACS buffer). Then, cells were incubated on ice for 30 minutes with optimal concentrations of anti-CD86 antibody; anti-CD40 antibody, FITC conjugated anti-MCHII antibody, and […]. Then, cells were washed 3 times. Labeling of anti-CD86 and anti-CD40 antibodies was performed by incubating cells on ice for 30 minutes with peroxidase-conjugated donkey anti-rat immunoglobulins. Following incubation, cells were washed and resuspended into FACS medium. Fluorescence was measured with the aid of FACScan® flow cytometry. 15000 pulse events were analyzed per sample. Cells which had been incubated with the conjugate alone were used as a negative control.

(NANP)6P2P30 antigen = experiment: (NANP)6P2P30 murine immunization model: anti-(NANP)6P2P30 IgG (ELISA); format: in vivo, BALB/c mice; conditions: two s.c. shots, serum at 5 weeks, FIG. 79

| SMILES | max. Inhibition [1] | 50% inhibition LPS [1] | max. Inhibition LPS [1] | CC50 [2] | C80 % cells ([3]; 0.1 μg/ml) | C80 MFI ([3]; 0.1 μg/ml) | CD40 % cells ([3]; 0.1 μg/ml) | CD86 % cells ([3]; 0.1 μg/ml) | CD86 MFI ([3]; 0.1 μg/ml) | MHCII % cells ([3]; 0.1 μg/ml) | MHCII MFI ([3]; 0.1 μg/ml) | CD40 MFI ([3]; 0.1 μg/ml) | C80 % cells ([3]; 1 μg/ml) | C80 MFI ([3]; 1 μg/ml) | CD40 % cells ([3]; 1 μg/ml) | CD86 % cells ([3]; 1 μg/ml) | CD86 MFI ([3]; 1 μg/ml) | MHCII % cells ([3]; 1 μg/ml) | MHCII MFI ([3]; 1 μg/ml) | CD40 MFI ([3]; 1 μg/ml) | also measured |
| --- | --- | --- | --- | --- | --- | --- | --- | --- | --- | --- | --- | --- | --- | --- | --- | --- | --- | --- | --- | --- | --- |
| CCCCCCCCCCCC(=O)O[C@H](CCCCCCCCCCC)CC(=O)N[C@H](CC(=O)O)C(=O)NCCC[C@H](COC(=O)CCCCCNC(=O)CCC(=O)OC[C@@H]1C=C[C@H](n2cc(C)c(=O)[nH]c2=O)O1)NC(=O)C[C@H](O)CCCCCCCCCCC [OM-197-MC-AC-Succ-d4T] | 100% | 0.64 µg/mL | 0.00016 µg/mL | ~97 µM | – | – | – | – | – | – | – | – | – | – | – | – | – | – | – | – | – |
| CCCCCCCCCCCC(=O)O[C@H](CCCCCCCCCCC)CC(=O)N[C@H](CC(=O)O)C(=O)NCCC[C@H](COC(=O)CCCCC(O)CO)NC(=O)C[C@H](O)CCCCCCCCCCC (stereo partly drawn) [OM-197-MC-FV5, N—[(R)-3-dodecanoyloxytetradecanoylamino]-D-aspartic acid, α-N-{(4R)-5-hydroxy-4-[(R)-3-hydroxytetra-decanoylamino]-pentyl}amide 5-O-(6,7-dihydroxyheptanoate)] | 100% | >1 µg/mL | 0.016 µg/mL | – | 42% | 66 | 33% | 37% | 3437 | 40% | 1689 | 442 | 45% | 84 | 44% | 43% | 3888 | 43% | 1691 | 517 | C80 % cells ([3]; 10 μg/ml): 48%; C80 MFI ([3]; 10 μg/ml): 97; CD40 % cells ([3]; 10 μg/ml): 54%; CD86 % cells ([3]; 10 μg/ml): 51%; CD86 MFI ([3]; 10 μg/ml): 4097; MHCII % cells ([3]; 10 μg/ml): 48%; MHCII MFI ([3]; 10 μg/ml): 1681; CD40 MFI ([3]; 10 μg/ml): 630 |
| CCCCCCCCCCCC(=O)O[C@H](CCCCCCCCCCC)CC(=O)NC(CCOP(=O)(O)O)C(=O)NCCCC(COC(=O)CCCCC(O)CO)NC(=O)C[C@H](O)CCCCCCCCCCC (stereo partly drawn) [OM-197-FV6, 3-[(R)-dodecanoyloxytetradecanoylamino]-4oxo-5-aza-9-[(R)-3-hydroxytetradecanoylamino]-decan-1,10-diol 1-dihydrogenphate 10-(6,7-dihydroxyheptanoate)] | 100% | >1 µg/mL | 0.014 µg/mL | – | – | – | – | – | – | – | – | – | – | – | – | – | – | – | – | – | anti-(NANP)6P2P30 IgG serologic response ((NANP)6P2P30 antigen): greatly superior to the one observed when injecting antigen alone |
| CCCCCCCCCCCC(=O)O[C@H](CCCCCCCCCCC)CC(=O)N[C@H](CC(=O)O)C(=O)NCCC[C@H](COC(=O)CCCCCNC(=O)CCC(=O)OC[C@H]1O[C@@H](n2cc(C)c(=O)[nH]c2=O)C[C@@H]1N=[N+]=[N-])NC(=O)C[C@H](O)CCCCCCCCCCC [OM-197-MC-AC-Succ-AZT] | 100% | 0.45 µg/mL | 0.0005 µg/mL | > 94 µM | – | – | – | – | – | – | – | – | – | – | – | – | – | – | – | – | – |
| CCCCCCCCCCCC(=O)O[C@H](CCCCCCCCCCC)CC(=O)N[C@H](CC(=O)O)C(=O)NCCC[C@H](CO)NC(=O)C[C@H](O)CCCCCCCCCCC [OM-197-MC, N—[(R)-3-dodecanoyloxytetradecanoyl]-D-aspartic acid, α-N-{(4R)-5-hydroxy-4[(R)-3-hydroxytetradecanoylamino]-pentyl}amide] | 100% | 1 µg/mL | 0.0043 µg/mL | – | – | – | – | – | – | – | – | – | – | – | – | – | – | – | – | – | anti-(NANP)6P2P30 IgG serologic response ((NANP)6P2P30 antigen): greatly superior to the one observed when injecting antigen alone |
| CCCCCCCCCCCC(=O)O[C@H](CCCCCCCCCCC)CC(=O)N[C@H](CC(=O)O)C(=O)NCCC[C@H](COC(=O)CCCCCN)NC(=O)C[C@H](O)CCCCCCCCCCC [OM-197-MC-AC, N—[(R)-3-dodecanoyloxytetradecanoyl]-D-aspartic acid, α-N-{(4R)-5-(6-aminohexanoyloxy)-4-[(R)-3-hydroxytetradecanoylamino]pentyl}amide] | 100% | 0.88 µg/mL | 0.00003 µg/mL | – | 41% | 66 | 34% | 37% | 3504 | 38% | 1597 | 446 | 47% | 73 | 48% | 45% | 3791 | 45% | 1607 | 493 | C80 % cells ([3]; 10 μg/ml): 53%; C80 MFI ([3]; 10 μg/ml): 97; CD40 % cells ([3]; 10 μg/ml): 55%; CD86 % cells ([3]; 10 μg/ml): 52%; CD86 MFI ([3]; 10 μg/ml): 4162; MHCII % cells ([3]; 10 μg/ml): 49%; MHCII MFI ([3]; 10 μg/ml): 1622; CD40 MFI ([3]; 10 μg/ml): 605 |
